Test results reported in patent US9187450B2, “Substituted pyridine compound” (Daiichi Sankyo Company, Limited, priority 2010, dated 2015).
pIC50: −log10 of the molar value.

The compounds below were run against recombinant human CETP protein (Homo sapiens (Human), UniProt P11597) (assay: Test of CETP inhibition activity (in vitro, buffer-based)). Conditions: reconstituted HDL with [14C]-labeled cholesteryl ester, acceptor lipoprotein, 37° C.
Assay type: biochemical
Method: Test of CETP Inhibition Activity (In Vitro, Buffer-Based)
(1) Preparation of Reconstituted HDL
Cholesterol (1.125 μmol), phosphatidyl choline (4.5 μmol) and [^14C]-labeled cholesteryl ester (2.0 μCi; 40 μl) were taken in a glass test tube and well mixed with a vortex, and dried under a nitrogen gas current so that it formed a thin film. The obtained mixture was dissolved in ethanol (200 μl), which was designated as Solution A. A PBS solution [a mixed solution of Na2HPO4 (30 mM), KH2PO4 (8.8 mM), NaCl (60 mM) and EDTA (pH 7.4; 0.67 mM); 4 ml] was taken in a tube and the reaction solution was vigorously stirred with a vortex under a nitrogen current. The above-described Solution A was gently injected into this mixture with a syringe and the reaction solution was vigorously stirred with a vortex for 5 minutes under a nitrogen current. Sodium cholate ([…]; 0.38 ml) was added to the obtained mixture and the reaction solution was stirred for 2 minutes. ApoA-I protein (3 mg) was added to the obtained mixture and the reaction solution was stirred for 2 minutes. The obtained mixture was adjusted to 5 ml with the PBS solution and then dialyzed with the PBS solution. The obtained mixture was designated as the reconstituted HDL.
(2) Preparation of Acceptor Lipoprotein
NaBr was added to the plasma of a healthy person and the density of the mixture was adjusted to 1.019, and the mixture was subjected to density gradient centrifugation (40000 rpm, for 16 hours) to remove the fraction having a density of less than 1.019. NaBr was added to the obtained mixture and the density of the solution was adjusted to 1.063, and the solution was subjected to density gradient centrifugation (40000 rpm, 18 hours) to provide the fraction consisting of IDL (intermediate density lipoprotein) and LDL (1.019<density<1.063). The obtained fraction was dialyzed with the PBS solution. The obtained mixture was designated as the acceptor lipoprotein.
(3) Measurement of CETP Inhibition Activity
A recombinant human CETP protein (manufactured by Roar Biomedical Inc.; 4.5 ng), the acceptor lipoprotein described in (2) above (32.5 μg) and 5,5′-dithio-bis-(2-nitrobenzoic acid) (7 mM, 15 μl) were taken in a 96 well plate and the total amount of the mixture was adjusted to 48.5 μl with the PBS solution. The test compound [DMSO solution (concentration: 0.15, 0.5, 1.5, 5, 15, 50, 150 and 500 μM; 1.5 μl] was added to each well and the mixture was incubated in a thermostatic bath at 37° C. for 60 minutes. The reconstituted HDL (50 μl) described in (1) above was added to each well and the mixture was reacted in a thermostatic bath at 37° C. for 60 minutes. The 96 well plate was moved onto ice and a precipitation reagent [a mixed solution of magnesium chloride (60 mM) and 0.1% dextran sulfate [1/1 (v/v)]; 15 μl] was added to each well, and then the mixture was allowed to stand on ice for 15 minutes. The reaction solution (80 μl) in each well was moved to a filter plate and centrifuged at 1500 rpm for 1 minute, and the filtrate which passed through the filter was designated as the HDL fraction and the radioactivity thereof was measured with a scintillation counter. The percentage decrease in radioactivity in the case where the test compound was added in comparison with that in case where the test compound was not added was designated as the percentage CETP inhibition. The IC50 value was calculated from the percentage CETP inhibition.

Chain of recombinant human CETP protein (P11597 18-493): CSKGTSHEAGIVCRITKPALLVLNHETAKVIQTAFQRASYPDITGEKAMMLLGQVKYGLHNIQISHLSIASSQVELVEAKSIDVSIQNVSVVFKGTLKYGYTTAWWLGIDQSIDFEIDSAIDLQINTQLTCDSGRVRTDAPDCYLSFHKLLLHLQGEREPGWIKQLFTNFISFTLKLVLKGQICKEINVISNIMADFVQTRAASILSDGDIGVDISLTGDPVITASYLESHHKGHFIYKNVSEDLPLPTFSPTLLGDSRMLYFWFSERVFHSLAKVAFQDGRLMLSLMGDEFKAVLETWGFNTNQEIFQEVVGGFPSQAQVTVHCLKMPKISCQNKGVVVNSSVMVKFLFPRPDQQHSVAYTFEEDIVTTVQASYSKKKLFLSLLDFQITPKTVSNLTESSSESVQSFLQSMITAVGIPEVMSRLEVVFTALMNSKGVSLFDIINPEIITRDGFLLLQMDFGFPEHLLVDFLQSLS

pIC50	SMILES
7.46	CN(CCO)Cc1cnc(N2CCC(c3nc4c(c(C5CCC(F)(F)CC5)c3[C@@H](F)c3ccc(C(F)(F)F)cc3)[C@@H](O)CC(C)(C)C4)CC2)nc1 (single isomer, unassigned) [Example 36, (−)-4-(4,4-difluorocyclohexyl)-3-{fluoro[4-(trifluoromethyl)phenyl]methyl}-2-{1-(5-{[(2-hydroxyethyl)(methyl)amino]methyl}pyrimidine-2-yl)piperidin-4-yl}-7,7-dimethyl-5,6,7,8-tetrahydroquinoline-5-ol]
8.00	CN1CCC(Oc2cnc(N3CCC(c4nc5c(c(C6CCC(F)(F)CC6)c4[C@@H](F)c4ccc(C(F)(F)F)cc4)[C@@H](O)CC(C)(C)C5)CC3)nc2)CC1 (single isomer, unassigned) [Example 38, 4-(4,4-Difluorocyclohexyl)-3-{fluoro[4-(trifluoromethyl)phenyl]methyl}-7,7-dimethyl-2-(1-{5-[(1-methylpiperidin-4-yl)oxy]pyrimidin-2-yl}piperidin-4-yl)-5,6,7,8-tetrahydroquinolin-5-ol]
7.96	CC1(C)Cc2nc(C3CCN(c4ncc(OC[C@H](O)CO)cn4)CC3)c([C@@H](F)c3ccc(C(F)(F)F)cc3)c(C3CCC(F)(F)CC3)c2[C@@H](O)C1 (single isomer, unassigned) [Example 40]
7.80	CN1CC[C@@H](Oc2cnc(N3CCC(c4nc5c(c(C6CCC(F)(F)CC6)c4C(F)c4ccc(C(F)(F)F)cc4)C(O)CC(C)(C)C5)CC3)nc2)C1 (single isomer, unassigned) [Example 41]
7.66	C[C@@H](O)COc1cnc(N2CCC(c3nc4c(c(C5CCC(F)(F)CC5)c3[C@@H](F)c3ccc(C(F)(F)F)cc3)[C@@H](O)CC(C)(C)C4)CC2)nc1 (single isomer, unassigned) [Example 42]
7.89	CC1(C)Cc2nc(C3CCN(c4ncc(OCCCS(C)(=O)=O)cn4)CC3)c([C@@H](F)c3ccc(C(F)(F)F)cc3)c(C3CCC(F)(F)CC3)c2[C@@H](O)C1 (single isomer, unassigned) [Example 45, (−)-4-(4,4-Difluorocyclohexyl)-3-{fluoro[4-(trifluoromethyl)phenyl]methyl}-7,7-dimethyl-2-(1-{5-[3-(methylsulphonyl)propoxy]pyrimidin-2-yl}piperidin-4-yl)-5,6,7,8-tetrahydroquinolin-5-ol]
7.51	CC1(C)Cc2nc(C3CCN(c4ncc(OCCC(F)(F)F)cn4)CC3)c([C@@H](F)c3ccc(C(F)(F)F)cc3)c(C3CCC(F)(F)CC3)c2[C@@H](O)C1 (single isomer, unassigned) [Example 47, (−)-4-(4,4-Difluorocyclohexyl)-3-{fluoro[4-(trifluoromethyl)phenyl]methyl}-7,7-dimethyl-2-{1-[5-(3,3,3-trifluoropropoxyl)pyrimidin-2-yl]piperidin-4-yl}-5,6,7,8-tetrahydroquinolin-5-ol]
7.38	CC1(C)Cc2nc(C3CCN(c4ncc(OC(F)F)cn4)CC3)c([C@@H](F)c3ccc(C(F)(F)F)cc3)c(C3CCC(F)(F)CC3)c2[C@@H](O)C1 (single isomer, unassigned) [Example 48, (−)-4-(4,4-Difluorocyclohexyl)-2-{1-[5-(difluoromethoxy)pyrimidin-2-yl]piperidin-4-yl}-3-{fluoro[4-(trifluoromethyl)phenyl]methyl}-7,7-dimethyl-5,6,7,8-tetrahydroquinolin-5-ol]
8.10	CC1(C)Cc2nc(C3CCN(c4ncc(OCC(CO)CO)cn4)CC3)c([C@@H](F)c3ccc(C(F)(F)F)cc3)c(C3CCC(F)(F)CC3)c2[C@@H](O)C1 (single isomer, unassigned) [Example 49, (−)-4-(4,4-Difluorocyclohexyl)-3-{fluoro[4-(trifluoromethyl)phenyl]methyl}-2-(1-{5-[3-hydroxy-2-(hydroxymethyl)propoxy]pyrimidin-2-yl}piperidin-4-yl)-7,7-dimethyl-5,6,7,8-tetrahydroquinolin-5-ol]
7.89	CC1(C)Cc2nc(C3CCN(c4ncc(OCC(C)(CO)CO)cn4)CC3)c([C@@H](F)c3ccc(C(F)(F)F)cc3)c(C3CCC(F)(F)CC3)c2[C@@H](O)C1 (single isomer, unassigned) [Example 50, (−)-4-(4,4-Difluorocyclohexyl)-3-{fluoro[4-(trifluoromethyl)phenyl]methyl}-2-(1-{5-[3-hydroxy-2-(hydroxymethyl)-2-methylpropoxy]pyrimidin-2-yl}piperidin-4-yl)-7,7-dimethyl-5,6,7,8-tetrahydroquinolin-5-ol]
8.22	CN(Cc1cnc(N2CCC(c3nc4c(c(C5CCC(F)(F)CC5)c3[C@@H](F)c3ccc(C(F)(F)F)cc3)[C@@H](O)CC(C)(C)C4)CC2)nc1)S(C)(=O)=O (single isomer, unassigned) [Example 51, (−)-4-(4,4-Difluorocyclohexyl)-3-{fluoro[4-(trifluoromethyl)phenyl]methyl}-7,7-dimethyl-2-[1-(5-{[methyl(methylsulphonyl)amino]methyl}pyrimidin-2-yl)piperidin-4-yl]-5,6,7,8-tetrahydroquinolin-5-ol]
8.22	CC(C)S(=O)(=O)N(C)Cc1cnc(N2CCC(c3nc4c(c(C5CCC(F)(F)CC5)c3[C@@H](F)c3ccc(C(F)(F)F)cc3)[C@@H](O)CC(C)(C)C4)CC2)nc1 (single isomer, unassigned) [Example 52, 4-(4,4-Difluorocyclohexyl)-3-{fluoro[4-(trifluoromethyl)phenyl]methyl}-7,7-dimethyl-2-[1-(5-{[methyl(propan-2-ylsulfonyl)amino]methyl}pyrimidin-2-yl)piperidin-4-yl]-5,6,7,8-tetrahydroquinolin-5-ol]
7.47	CSc1cnc(N2CCC(c3nc4c(c(C5CCC(F)(F)CC5)c3[C@@H](F)c3ccc(C(F)(F)F)cc3)[C@@H](O)CC(C)(C)C4)CC2)nc1 (single isomer, unassigned) [Example 53, (−)-4-(4,4-Difluorocyclohexyl)-3-{fluoro[4-(trifluoromethyl)phenyl]methyl}-7,7-dimethyl-2-[1-(5-methylthiopyrimidin-2-yl)-piperidin-4-yl]-5,6,7,8-tetrahydroquinolin-5-ol]
7.49	CC1(C)Cc2nc(C3CCN(c4ncc(S(C)(=O)=O)cn4)CC3)c([C@@H](F)c3ccc(C(F)(F)F)cc3)c(C3CCC(F)(F)CC3)c2[C@@H](O)C1 (single isomer, unassigned) [Example 54, (−)-4-(4,4-Difluorocyclohexyl)-3-{fluoro[4-(trifluoromethyl)phenyl]methyl}-7,7-dimethyl-2-{1-[5-(methylsulphonyl)pyrimidin-2-yl]piperidin-4-yl}-5,6,7,8-tetrahydroquinolin-5-ol]

SMILES	pIC50
CC(C)(O)CCOc1cnc(N2CCC(c3nc4c(c(C5CCC(F)(F)CC5)c3[C@@H](F)c3ccc(C(F)(F)F)cc3)[C@@H](O)CC(C)(C)C4)CC2)nc1 (single isomer, unassigned) [Example 43, (−)-4-(4,4-Difluorocyclohexyl)-3-{fluoro[4-(trifluoromethyl)phenyl]methyl}-2-{1-[5-(3-hydroxy-3-methylbutoxy)pyrimidin-2-yl]piperidin-4-yl}-7,7-dimethyl-5,6,7,8-tetrahydroquinolin-5-ol]	8.05
